Experiments:
[1] = target: T1, CsDIR1 (Cucumis sativus, UniProt A0A0A0K4Q7); experiment: TNS fluorescence displacement; type: binding; conditions: 16 uM ligand; TNS 5 uM (methods) or 3 uM; pH 7 buffer; in cavity or allosteric
T1 construct: gene Csa_7G372360; Rosetta Gami E. coli; S-Tag thrombin purification; His-tagged
T1 sequence (A0A0A0K4Q7 25-103): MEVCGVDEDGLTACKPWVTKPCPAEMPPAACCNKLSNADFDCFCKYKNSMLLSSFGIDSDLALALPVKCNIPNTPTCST

[2] = target: T2, CsDIR2 (Cucumis sativus, UniProt A0A0A0KZ41); experiment: TNS fluorescence displacement; type: binding; conditions: 16 uM ligand; TNS 5 uM (methods) or 3 uM; pH 7 buffer; in cavity or allosteric
T2 construct: gene Csa_4G017140; Rosetta Gami E. coli; S-Tag thrombin purification; His-tagged
T2 sequence (A0A0A0KZ41 26-101): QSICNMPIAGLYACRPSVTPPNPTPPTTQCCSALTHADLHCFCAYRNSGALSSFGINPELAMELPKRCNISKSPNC

| % lower TNS fluorescence than MES control [1] | % lower TNS fluorescence than MES control [2] | Compound |
| --- | --- | --- |
| ~ 25% | – | O=C(O)[C@@H]1CCCCN1 [Pip] |
| ~ 25% | ~ 30% | O=C(O)CCCCCCCC(=O)O [AzA] |

From article PMC4854023, “Orthology Analysis and In Vivo Complementation Studies to Elucidate the Role of DIR1 during Systemic Acquired Resistance in Arabidopsis thaliana and Cucumis sativus” (Frontiers in Plant Science, 2016)
